This is an account of results in US20070225253A1, “Use of a trioxopyrimidine for the treatment and prevention of bronchial inflammatory diseases” (priority 2004, published 2007).

Each structure is given as a SMILES string.

A word on the IC50: it is the concentration that gives 50% inhibition. Higher therefore signals lower potency.

Assay in all cases: MMP enzymatic activity, modified fluorescence assay (DNP-substrate)
Holding throughout (assay type): biochemical

One experiment has as its target T1, Human MMP-1 (Homo sapiens, UniProt P03956).
T1 sequence (P03956 100-469): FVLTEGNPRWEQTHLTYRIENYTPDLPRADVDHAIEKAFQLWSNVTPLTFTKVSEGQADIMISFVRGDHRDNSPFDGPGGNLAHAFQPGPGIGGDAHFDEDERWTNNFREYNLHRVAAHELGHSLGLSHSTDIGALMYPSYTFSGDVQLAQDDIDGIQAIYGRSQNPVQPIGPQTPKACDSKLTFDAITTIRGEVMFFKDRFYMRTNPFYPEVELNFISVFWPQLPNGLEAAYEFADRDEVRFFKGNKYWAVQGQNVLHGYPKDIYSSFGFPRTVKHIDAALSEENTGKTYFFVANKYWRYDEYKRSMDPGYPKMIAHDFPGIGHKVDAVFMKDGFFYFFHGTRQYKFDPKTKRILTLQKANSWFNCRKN
The procedure:
(§1) IC50 values are measured by an in vitro assay for MMP enzymatic activity. […] This assay is based on the determination of MMP enzymatic activity on a dinitrophenol substrate and fluorescence measurement of the substrate after cleaving by MMPs.
(§2) Human MMP-1, MMP-2, MMP-3, MMP-9 and MMP-14 are commercially available (e.g. Calbiochem). The pro-enzymes were activated with 1 mM APMA (incubation for 30 min at 37° C.) immediately before testing. Activated enzyme is diluted to 100 ng/ml in incubation buffer (50 mM Tris, 100 mM NaCl, 10 mM CaCl2, pH 7.6). The compounds were dissolved in 100% DMSO.
(§3) The test tube contains 970 μl incubation buffer, 10 μl inhibitor solution and 10 μl enzyme solution. The reaction was started by adding the 10 μl substrate solution.

Another experiment addresses T2, Human MMP-2 (Homo sapiens, UniProt P08253).
T2 sequence (P08253 110-660): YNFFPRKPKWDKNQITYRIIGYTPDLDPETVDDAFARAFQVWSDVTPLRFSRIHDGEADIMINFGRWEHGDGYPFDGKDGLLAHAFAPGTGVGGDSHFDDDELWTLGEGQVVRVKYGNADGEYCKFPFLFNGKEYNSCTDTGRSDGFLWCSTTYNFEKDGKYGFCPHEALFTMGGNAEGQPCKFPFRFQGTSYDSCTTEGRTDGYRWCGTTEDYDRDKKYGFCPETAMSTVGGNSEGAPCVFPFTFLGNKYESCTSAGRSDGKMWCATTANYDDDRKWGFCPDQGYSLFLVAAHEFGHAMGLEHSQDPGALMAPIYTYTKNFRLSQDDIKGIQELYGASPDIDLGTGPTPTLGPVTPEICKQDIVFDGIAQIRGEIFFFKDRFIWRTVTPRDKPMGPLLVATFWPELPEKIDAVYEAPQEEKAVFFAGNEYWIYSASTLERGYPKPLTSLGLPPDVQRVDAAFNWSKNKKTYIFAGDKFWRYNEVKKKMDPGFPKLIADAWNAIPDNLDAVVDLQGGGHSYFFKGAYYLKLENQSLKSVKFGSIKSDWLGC
The procedure:
as §1, §2, §3

For a further experiment, the target named is Human MMP-3 (Homo sapiens, UniProt P08254). The method, then:
as §1, §2, §3

The target in another experiment is Human MMP-14 (Homo sapiens, UniProt P50281). The method, then: (§4) IC50 values are measured by an in vitro assay for MMP enzymatic activity. Such an assay is described by Stack, M. S., and Gray, R. D., J. Biol. Chem. 264 (1989) 4277-4281. This assay is based on the determination of MMP enzymatic activity on a dinitrophenol substrate and fluorescence measurement of the substrate after cleaving by MMPs.
(§5) Inhibitors were tested in a modified fluorescence-assay as described by Stack, M. S., and Gray, R. D., J. Biol. Chem. 264 (1989) 4277-4281. Human MMP-1, MMP-2, MMP-3, MMP-9 and MMP-14 are commercially available (e.g. Calbiochem). The pro-enzymes were activated with 1 mM APMA (incubation for 30 min at 37° C.) immediately before testing. Activated enzyme is diluted to 100 ng/ml in incubation buffer (50 mM Tris, 100 mM NaCl, 10 mM CaCl2, pH 7.6). The compounds were dissolved in 100% DMSO. […] DNP-substrate (Bachem M1855, 255 μM) was dissolved in incubation buffer.
as §3
(§6) Kinetics of activity were determined using excitation at 280 nm and emission at 346 nm measured on a FluoroMax™ (Spex Industries Inc., Edison, N.J., USA) over 120 sec. DMSO has been used as control instead of inhibitor solution.
(§7) IC50's are defined as the concentration of inhibitor that gives a signal that is 50% of the positive enzyme control.

The target of another experiment is Human MMP-9 (Homo sapiens, UniProt P14780). The method, then:
as §4, §5, §3, §6, §7

Human MMP-9, sequence (P14780 107-707 limits assumed): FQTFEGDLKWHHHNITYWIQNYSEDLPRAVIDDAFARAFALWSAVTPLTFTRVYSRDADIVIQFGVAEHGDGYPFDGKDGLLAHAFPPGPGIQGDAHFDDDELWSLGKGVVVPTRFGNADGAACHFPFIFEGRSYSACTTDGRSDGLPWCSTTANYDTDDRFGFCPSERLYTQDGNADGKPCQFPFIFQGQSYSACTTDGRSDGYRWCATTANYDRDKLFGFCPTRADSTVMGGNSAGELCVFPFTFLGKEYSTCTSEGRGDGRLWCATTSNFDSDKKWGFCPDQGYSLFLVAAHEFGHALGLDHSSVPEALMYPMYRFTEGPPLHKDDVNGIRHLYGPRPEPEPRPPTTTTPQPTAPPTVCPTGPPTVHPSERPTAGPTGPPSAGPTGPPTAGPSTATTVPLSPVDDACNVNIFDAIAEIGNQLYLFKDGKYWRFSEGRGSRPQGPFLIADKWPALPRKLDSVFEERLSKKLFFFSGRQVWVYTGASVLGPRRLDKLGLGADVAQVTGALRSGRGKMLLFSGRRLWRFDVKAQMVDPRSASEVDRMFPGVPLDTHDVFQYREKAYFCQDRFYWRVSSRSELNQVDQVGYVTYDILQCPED
Human MMP-3, sequence (P08254 100-477): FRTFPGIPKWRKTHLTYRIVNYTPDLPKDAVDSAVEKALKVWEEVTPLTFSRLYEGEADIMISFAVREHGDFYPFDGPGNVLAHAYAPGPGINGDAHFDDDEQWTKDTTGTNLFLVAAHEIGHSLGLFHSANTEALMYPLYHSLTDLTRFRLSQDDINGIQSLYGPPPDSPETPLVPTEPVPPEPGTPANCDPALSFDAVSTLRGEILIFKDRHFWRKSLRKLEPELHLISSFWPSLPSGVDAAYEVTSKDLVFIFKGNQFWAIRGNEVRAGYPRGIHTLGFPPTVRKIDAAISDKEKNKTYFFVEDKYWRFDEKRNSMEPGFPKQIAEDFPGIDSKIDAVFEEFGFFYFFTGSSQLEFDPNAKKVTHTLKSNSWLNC

Regarding `O=C1NC(=O)C(c2ccc(-c3ccccc3)cc2)(N2CCN(c3ccc([N+](=O)[O-])cc3)CC2)C(=O)N1` [Compound I, 5-Biphenyl-4-yl-5-[4-(4-nitro-phenyl)-piperazin-1-yl]pyrimidine-2,4,6-trione], the IC50 at Human MMP-1 stood at 53000 nM; at Human MMP-2 it was 65 nM; against Human MMP-3, 3500 nM; at Human MMP-14 it was 1 nM; on Human MMP-9, 260 nM.
